Measurements as given in patent US20230303599A1, “PRODRUGS OF PHOSPHONAMIDE NUCLEOTIDE ANALOGUES AND THEIR PHARMACEUTICAL USE” (priority 2020, published 2023).
Values after ≈ are worked out from the molar mass of the structure shown. Read-outs that look alike come from different tables or passages of the source.

Legend:
HIV-1 (IIIB) = assay: Antiviral (HIV) assay in MT-4 cells; type: cell-based
Method: Example 104: Antiviral (HIV) Assay in MT-4 Cells
Compounds were tested in a high-throughput 384-well assay format for their ability to inhibit the replication of HIV-1 (IIIB) in MT-4 cells. Compounds were serially diluted (1:3) in DMSO on 384-well polypropylene plates and further diluted 200-fold into complete RPMI media (10% FBS, 1% P/S) using the Biotek Micro Flow and Labcyte ECHO acoustic dispenser. Each plate contained up to 8 test compounds, with negative (no drug) and positive (5 μM AZT) controls. MT-4 cells were pre-treated with 10 μL of either RPMI (mock-infected) or a fresh 1:250 dilution of HIV-1 IIIB concentrated virus stock. Infected and uninfected MT-4 cells were further diluted in complete RPMI media and added to each plate using a Micro Flow dispenser. After 5 days incubation in a humidified and temperature-controlled incubator (37° C.), Cell Titer Glo (Promega) was added to the assay plates and chemiluminescence read using an Envision plate-reader. EC50 values were defined as the compound concentration that causes a 50% decrease in luminescence signal and were calculated using a sigmoidal dose-response model to generate curve fits and are shown in Table 1.

[1] = Kinetic solubility analysis; type: physicochemical; settings: 1× PBS, 24.2 °C, aqueous buffer, kinetic from dmso stock; pH 7.4 PBS, 1% DMSO, 24-hour incubation at ambient temperature
Summary of the method: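 Compounds from 10 mM DMSO stocks were incubated in 0.1 N HCl or 1× PBS pH 7.4 (1.0% DMSO, 100 μM maximum theoretical) for 24 h at 24.2-27.5 °C, then vacuum filtered. Filtrates were quantified in μM by chemiluminescent nitrogen detection against a calibration curve, corrected for background nitrogen; values for adjacent ring-nitrogen compounds were raised ~25%.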

[2] = Cytotoxicity assay in MT-4 cells; type: cell-based; settings: human, uninfected MT-4 cells, average of at least two independent experiments, read-out: MT4 CC50
Summary of the method: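 Uninfected MT-4 cells were incubated 5 days at 37 °C with 1:3 serially diluted compound in RPMI (10% FBS), with 10 μM puromycin as baseline cytotoxicity. Viability was read by CellTiter-Glo luminescence. Values are concentrations giving 50% luminescence decrease, from sigmoidal dose-response fits.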

PBMCs = assay: TFV-DP formation in peripheral blood mononuclear cells (PBMCs); type: in vitro ADME, human; settings: 1 μM compound, 2 hrs at 37° C., 50% serum, activated PBMCs; average of at least two independent experiments
Method: Example 109: TFV-DP Formation in Peripheral Blood Mononuclear Cells (PBMCs)
Compounds were tested in a 96-well assay format for the level of TFV-DP loading in PBMCs in the presence of human serum. PBMCs were activated with 100 units/mL recombinant human […] and […] phytohaemagglutinin (PHA) for 36 hrs. After activation, PBMCs (2 million) were incubated with compounds (1 μM) and cell culture media with 50% serum in a 96 well plate for 2 hrs at 37° C. Cells were transferred to a 96 well deep block plate and spun down. Liquid was removed, and cells were washed 2× with 1 mL of 0.9% saline with spin downs between washes. After a final wash and liquid removal, 500 μL of MeOH+200 nM C1-ATP+200 nM [adenine-^13Cs]-tenofovir diphosphate (tetra ammonium salt) was added and thoroughly mixed with the cells. The plate was then spun down and 450 μL of sample was transferred to a new 96 well plate. Supernatants were then evaporated, reconstituted in 80 μl of 1 mM ammonium phosphate and thoroughly vortexed. Blank samples were pooled for serial dilution to construct calibration standards for TFV, TFV-DP and TFV-TP in pmol/million cells. Samples were then transferred to a short-well 96 well plate, centrifuged and injected on an LC-MS/MS for quantification. Values were reported in μM units using an intracellular volume of […].

[3] = Human immunodeficiency virus 1, IIIB, MT4, 120 h, read-out: MT4 HIV EC50 (nM)

| solubility kinetic at 24 h [1] [µg/mL] | Average PBMC TFV-DP (μM) (PBMCs) | Structure (SMILES) | CC50 at 5 days [2] [nM] | EC50 (HIV-1 (IIIB); [3]) [nM] | also measured |
| --- | --- | --- | --- | --- | --- |
| < 1 | – | C[C@H](Cn1cnc2c(N)ncnc21)OCP(=O)(NC(C)(C)C(=O)OCC1CCC(C)(C)CC1)NC(C)(C)C(=O)OCC1CCC(C)(C)CC1 [Example 13, Bis((4,4-dimethylcyclohexyl)methyl) 2,2′-(((((1-(6-amino-9H-purin-9-yl)propan-2-yl)oxy)methyl)phosphoryl)bis(azanediyl))(R)-bis(2-methylpropanoate)] | 5470 | – | EC50 (HIV-1 (IIIB); Human immunodeficiency virus 1, MT4, 120 h, HIV-1 IIIB in MT-4 cells, 5 days, Cell Titer Glo, average of at least two independent experiments, read-out: MT4 HIV EC50): 16 nM |
| 69 (≈ 110 µM) | BLQ | C[C@H](Cn1cnc2c(N)ncnc21)OCP(=O)(NC(C)(C)C(=O)OC1CCOCC1)NC(C)(C)C(=O)OC1CCOCC1 [Example 24, Bis(tetrahydro-2H-pyran-4-yl) 2,2′-(((((1-(6-amino-9H-purin-9-yl)propan-2-yl)oxy)methyl)phosphoryl)bis(azanediyl))(R)-bis(2-methylpropanoate)] | – | – | – |
| < 1 | BLQ | C[C@H](Cn1cnc2c(N)ncnc21)OCP(=O)(NC(C)(C)C(=O)O[C@H]1CC[C@H](C(C)(C)C)CC1)NC(C)(C)C(=O)O[C@H]1CC[C@H](C(C)(C)C)CC1 [Example 12, Bis(trans-4-(tert-butyl)cyclohexyl) 2,2′-((((((R)-1-(6-amino-9H-purin-9-yl)propan-2-yl)oxy)methyl)phosphoryl)bis(azanediyl))bis(2-methylpropanoate)] | – | – | – |

The next lines start with the molecule.

| Structure (SMILES) | solubility kinetic at 24 h [1] [µg/mL] | Average PBMC TFV-DP (μM) (PBMCs) | CC50 at 5 days [2] [nM] | EC50 (HIV-1 (IIIB); [3]) [nM] | also measured |
| --- | --- | --- | --- | --- | --- |
| CC(C)CCCOC(=O)C(C)(C)NP(=O)(CO[C@H](C)Cn1cnc2c(N)ncnc21)NC(C)(C)C(=O)OCCCC(C)C [Example 67, Bis(4-methylpentyl) 2,2′-(((((1-(6-amino-9H-purin-9-yl)propan-2-yl)oxy)methyl)phosphoryl)bis(azanediyl))(R)-bis(2-methylpropanoate)] | – | – | – | – | EC50 (HIV-1 (IIIB); HIV-1 IIIB in MT-4 cells, 5 days, Cell Titer Glo, average of at least two independent experiments, read-out: MT4 HIV EC50): 8 nM; Average PBMC TFV-DP (PBMCs): 5.5 µM |
| CCCCCCOC(=O)C(C)(C)NP(=O)(CO[C@H](C)Cn1cnc2c(NC(=O)CC(C)(C)c3c(C)cc(C)cc3OC(C)=O)ncnc21)NC(C)(C)C(=O)OCCCCCC [Example 100, Dihexyl 2,2′-(((((1-(6-(3-(2-acetoxy-4,6-dimethylphenyl)-3-methylbutanamido)-9H-purin-9-yl)propan-2-yl)oxy)methyl)phosphoryl)bis(azanediyl))(R)-bis(2-methylpropanoate)] | – | – | – | 22 | – |
| CCCCCCOC(=O)C(C)(C)NP(=O)(CO[C@H](C)Cn1cnc2c(NC(=O)CC(C)(C)CC(=O)OCc3oc(=O)oc3C)ncnc21)NC(C)(C)C(=O)OCCCCCC [Example 102, Dihexyl 2,2′-(((((1-(6-(3,3-dimethyl-5-((5-methyl-2-oxo-1,3-dioxol-4-yl)methoxy)-5-oxopentanamido)-9H-purin-9-yl)propan-2-yl)oxy)methyl)phosphoryl)bis(azanediyl))(R)-bis(2-methylpropanoate)] | 10 (≈ 11.4 µM) | BLQ | 45100 | – | – |
| C[C@H](Cn1cnc2c(N)ncnc21)OCP(=O)(NC(C)(C)C(=O)OCCc1ccccc1)NC(C)(C)C(=O)OCCc1ccccc1 [Example 103, Diphenethyl 2,2′-(((((1-(6-amino-9H-purin-9-yl)propan-2-yl)oxy)methyl)phosphoryl)bis(azanediyl))(R)-bis(2-methylpropanoate)] | – | – | > 42500 | > 500 | – |
| CCCCCCOC(=O)C(C)(C)NP(=O)(CO[C@H](C)Cn1cnc2c(NC(=O)CCCSC(C)=O)ncnc21)NC(C)(C)C(=O)OCCCCCC [Example 97, Dihexyl 2,2′-(((((1-(6-(4-(acetylthio)butanamido)-9H-purin-9-yl)propan-2-yl)oxy)methyl)phosphoryl)bis(azanediyl))(R)-bis(2-methylpropanoate)] | 13 (≈ 16.9 µM) | – | 10700 | 13 | – |
